Test: Tolerability of mono-ethanolamine on humans
Assay type: in vivo
Conditions: when used in higher concentrations

NCCO [mono-ethanolamine, 2-aminoethanol]
irritation of eyes and mucus membranes: irritating to the eyes and mucus membranes
